Test results as given in ChEMBL document CHEMBL1201862, “PubChem BioAssay data set” (2004).
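These data come from cells grown in 96-well plates and exposed to compound for 48 hours at five concentrations. Here, GI50 denotes the concentration required for 50% inhibition of growth.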 Active and inactive are the calls of the source. Rule as the data show it: active = GI50 up to about 1.1 µM and inactive = higher.

Key:
Test in all cases: NCI tumour cell line growth inhibition, 48 h
[1] = system: SF-268
[2] = system: A549
[3] = system: CCRF-CEM
[4] = system: OVCAR-3
[5] = system: Hs-578T
[6] = system: SK-MEL-5
[7] = system: A498
[8] = system: SF-295
[9] = system: OVCAR-8
[10] = system: NCI-H460
[11] = system: RXF 393
[12] = system: SNB-19
[13] = system: SW-620
[14] = system: SR
[15] = system: EKVX
[16] = system: T47D
[17] = system: K562
[18] = system: SK-OV-3
[19] = system: HL-60
[20] = system: MDA-MB-231

Measured: GI50

CC(C)c1ccc(C(O)(C(=O)O)c2ccc(C(C)C)cc2)cc1
inactive: [1] 33.7 µM | [2] 33.1 µM | [3] 49.4 µM | [4] 26.1 µM | [5] 26.3 µM | [6] 56.8 µM | [7] 57.9 µM | [8] 26.7 µM | [9] 54.1 µM | [10] 47.2 µM | [11] 61.9 µM | [12] 45 µM | [13] 61.8 µM | [14] 60.8 µM | [15] 51.8 µM | [16] 43.2 µM | [17] 42.5 µM | [18] 69.7 µM | [19] 39.2 µM

Cc1cccc2c(O)c3c(O)cc(O)cc3nc12
inactive: [1] > 10 µM | [2] > 10 µM | [3] > 10 µM | [4] > 10 µM | [5] > 10 µM | [6] 9.71 µM | [7] > 10 µM | [8] > 10 µM | [9] > 10 µM | [10] > 10 µM | [11] > 10 µM | [12] > 10 µM | [20] > 10 µM | [13] > 10 µM | [15] > 10 µM | [16] > 10 µM | [17] > 10 µM | [18] > 10 µM

CCOC(=O)C(Cc1ccc(OC(=O)c2ccc(OC)cc2OC)cc1)NC(=O)C(F)(F)F (stereo not drawn)
inactive: [1] 31.1 µM | [2] 36.2 µM | [3] 19.2 µM | [4] 19.5 µM | [5] 27.5 µM | [6] 37.3 µM | [7] 15.7 µM | [8] 31.7 µM | [9] 22.8 µM | [10] 34.8 µM | [11] 19.6 µM | [12] 33.6 µM | [20] 57.7 µM | [13] > 100 µM | [15] 21.4 µM | [16] 23.8 µM | [17] 29.6 µM | [18] 39 µM | [19] 21.9 µM

CO/N=C(/C(=O)OC)c1ccccc1COc1cccc(C(F)(F)F)c1
inactive: [1] 35.5 µM | [2] 38.1 µM | [3] 16 µM | [4] 11.6 µM | [5] 25.8 µM | [6] 4.79 µM | [7] 43.5 µM | [8] 7.23 µM | [10] 28.8 µM | [11] 26.4 µM | [12] 71.4 µM | [20] 72.8 µM | [13] 42.5 µM | [15] 7.62 µM | [16] 9.55 µM | [17] 18.5 µM | [18] 38.9 µM | [19] 9.68 µM

CCOc1ncn(-c2ccc(NC(=S)Nc3cnccn3)cc2)n1
inactive: [1] > 10 µM | [2] > 10 µM | [3] > 10 µM | [4] > 10 µM | [5] > 10 µM | [8] > 10 µM | [9] > 10 µM | [10] > 10 µM | [11] > 10 µM | [12] > 10 µM | [20] > 10 µM | [14] > 10 µM | [15] > 10 µM | [16] > 10 µM | [17] > 10 µM | [18] > 10 µM | [19] > 10 µM

COC(=O)CC[N+]1=CCC(c2ccccc2)(c2ccccc2)O1
inactive: [1] > 100 µM | [2] > 100 µM | [4] > 100 µM | [5] > 100 µM | [6] > 100 µM | [7] > 100 µM | [8] > 100 µM | [9] > 100 µM | [10] > 100 µM | [11] > 100 µM | [12] > 100 µM | [20] > 100 µM | [13] > 100 µM | [15] > 100 µM | [16] > 100 µM | [17] > 100 µM | [18] > 100 µM

O=C1c2c(Br)sc(Br)c2C(=O)C1(O)O
inactive: [1] > 100 µM | [2] > 100 µM | [3] 27.7 µM | [4] 19.4 µM | [5] > 100 µM | [6] 19.9 µM | [7] > 100 µM | [8] > 100 µM | [9] 35.7 µM | [10] > 100 µM | [11] 19.1 µM | [12] > 100 µM | [13] 35.6 µM | [14] 24.1 µM | [15] 53.6 µM | [16] 21.8 µM | [17] 27.7 µM | [18] > 100 µM | [19] 41 µM

Cc1ccc(OCC2OC(n3cnc4nc(Nc5ccc(Cl)c(Cl)c5)nc(Cl)c43)CC2Oc2ccc(C)cc2)cc1 (stereo not drawn)
inactive: [1] > 100 µM | [2] > 100 µM | [3] > 100 µM | [4] > 100 µM | [5] > 100 µM | [6] > 100 µM | [8] > 100 µM | [9] > 100 µM | [10] 27.2 µM | [11] > 100 µM | [12] > 100 µM | [20] > 100 µM | [13] > 100 µM | [15] 53.7 µM | [16] > 100 µM | [17] > 100 µM | [18] > 100 µM

COC(=O)CCCc1c(-c2[nH]c3ccccc3c2CCCC(=O)OC)[nH]c2ccccc12
inactive: [1] > 100 µM | [2] > 100 µM | [3] > 100 µM | [4] > 100 µM | [5] > 100 µM | [6] > 100 µM | [7] > 100 µM | [8] > 100 µM | [9] > 100 µM | [10] > 100 µM | [11] > 100 µM | [12] > 100 µM | [20] > 100 µM | [13] > 100 µM | [15] > 100 µM | [16] > 100 µM | [17] > 100 µM | [18] > 100 µM | [19] > 100 µM

COc1ccc(N2C(=O)C3c4[nH]c5ccc(OC)cc5c4C4CCC(C(C)C)CC4C3C2=O)cc1 (stereo not drawn)
inactive: [1] 19.5 µM | [2] > 72.4 µM | [3] 7.73 µM | [4] > 100 µM | [5] 12.1 µM | [6] > 100 µM | [7] 28 µM | [8] 31.2 µM | [9] > 29.4 µM | [10] 27.5 µM | [11] 31 µM | [12] 35.6 µM | [20] 30.4 µM | [13] > 75.3 µM | [15] > 93.3 µM | [16] > 100 µM | [17] 18.3 µM | [18] 36.9 µM | [19] 55.2 µM

CC1=NN(c2nc(N)nc(C(C)Sc3cc(Cl)c(C)cc3S(N)(=O)=O)n2)C(C)(C)C1 (stereo not drawn)
inactive: [1] > 10 µM | [2] > 10 µM | [3] > 10 µM | [4] > 10 µM | [5] > 10 µM | [6] > 10 µM | [7] > 10 µM | [8] > 10 µM | [9] > 10 µM | [10] > 10 µM | [11] > 10 µM | [12] > 10 µM | [13] > 10 µM | [14] > 10 µM | [15] > 10 µM | [16] > 10 µM | [17] > 10 µM | [18] > 10 µM | [19] > 10 µM

CCOP(=O)(OCC)C(N)c1ccc(Cl)cc1 (stereo not drawn)
inactive: [1] > 100 µM | [2] > 100 µM | [3] > 100 µM | [5] > 100 µM | [6] > 100 µM | [7] > 100 µM | [9] > 100 µM | [10] > 100 µM | [12] > 100 µM | [20] > 100 µM | [13] > 100 µM | [15] > 100 µM | [16] > 100 µM | [19] > 100 µM

Cc1ccc(O)c(-c2cc(-c3cccc(Br)c3)c(C#N)c(N)n2)c1
inactive: [1] 26.4 µM | [2] 27.6 µM | [4] 27.6 µM | [5] 25.5 µM | [6] 19.2 µM | [8] 22.9 µM | [9] 32.3 µM | [10] 19.6 µM | [11] 20.8 µM | [12] 19.3 µM | [20] 20.4 µM | [13] 23.8 µM | [14] 19.3 µM | [15] 14.8 µM | [16] 17.7 µM | [17] 21.8 µM | [18] 31.9 µM | [19] 30 µM

O/N=N\c1nc(-c2cccnc2)nc2ccccc12
inactive: [1] > 100 µM | [2] > 100 µM | [3] > 100 µM | [4] > 100 µM | [5] > 100 µM | [6] > 100 µM | [7] > 100 µM | [8] > 100 µM | [9] > 100 µM | [10] > 100 µM | [12] > 100 µM | [20] > 100 µM | [13] > 100 µM | [15] > 100 µM | [16] > 100 µM | [17] > 100 µM | [18] > 100 µM | [19] > 100 µM

Cc1occc1/C(S)=N\c1ccc(Cl)c(C(=O)OCC(F)(F)F)c1
inactive: [1] 20.7 µM | [2] 23.1 µM | [3] 17.9 µM | [4] 29.6 µM | [5] 35.6 µM | [6] 16.7 µM | [7] 15 µM | [9] 16.7 µM | [10] 22.1 µM | [12] 20.3 µM | [20] 18 µM | [13] 23.7 µM | [15] 25.5 µM | [16] 26.5 µM | [17] 18.5 µM | [18] 22.3 µM | [19] 24.4 µM
